According to patent US20240200147A1, “Non-Small Cell Lung Cancer Diagnosis and Treatment” (West Virginia University Board of Governors on Behalf of …, priority 2022, published 2024):
Like-named read-outs stand apart in the source and are kept apart here. Non-standard residues stand in square brackets, D forms with d. Residues, ends and D or L forms follow the SMILES beside them.

How the values were obtained:
[1] = test system: phosphorylated extracellular signal-regulated kinase (pERK); settings: patients with locally advanced/metastatic melanoma; clinically relevant doses; phase I; cited from earlier work
CCLE NSCLC cell lines = assay: Average IC50 and EC50 of selected compounds in PRISM drug screening data; type: cell-based, human; settings: for EC50 / IC50: PRISM dataset, NSCLC cell lines, outliers (drug concentration value > 10) removed
Description: The drug sensitivity data of human NSCLC cell lines were taken from multiple resources. The secondary PRISM repurposing dataset was obtained from the DepMap release 19Q4. […] A total of 64 NSCLC cell lines from GDSC1 and 58 NSCLC cell lines from GDSC2 were included in this study. Details of the categorization of drug sensitivity in each cell line were included in our previous publications.

pERK = settings: patients with solid tumors; phase I; cited from earlier work
[2] = test system: human NSCLC A549 and NCI-H358 cells; settings: cited from earlier work
[3] = test system: EGFR and HER2 transactivation; settings: cited from earlier work
NSCLC H460 cells = settings: in-vitro and in-vivo; cited from earlier work
[4] = test system: oxidative phosphorylation; settings: mitochondrial protonophore; cited from earlier work
refractory NSCLC = refractory NSCLC patients; open-label phase II; cited from earlier work
NSCLC cells [5] = settings: cited from earlier work
NSCLC cells [6] = settings: cited from earlier work; remark: listed apart in the source
U87MG glioma cells = settings: cited from earlier work
glioma tumor = settings: mouse xenograft model; cited from earlier work
U2OS and 143B lines = settings: cited from earlier work
[7] = test system: Ki-ras-transformed rat fibroblasts; settings: concurrent suppression of ERK and mTOR-p70(S6K) pathways; cited from earlier work
[8] = test system: endogenous promoters containing activator protein 1 (AP-1) response elements; settings: genes lacking an AP-1 response element not affected; cited from earlier work
[9] = test system: human breast cancer MDA-MB-231 and HBC-4 cells; settings: cited from earlier work
trophoblast = settings: fetal growth restriction; cited from earlier work
non-progressing NSCLC = settings: maintenance therapy, linsitinib added to erlotinib; cited from earlier work
NSCLC = settings: linsitinib added to erlotinib, compared with erlotinib alone; cited from earlier work
[10] = test system: late-stage, metastatic, Kras-mutant NSCLC; settings: compared with various combination therapies, chemo-, and immune therapy; cited from earlier work
[11] = BMS-754807 alone, A549 and NCI-H358
[12] = induced by addition of ET-1 to NSCLC cells

SMILES: O=C(NC[C@H](O)CO)c1ccncc1Nc1ccc(I)cc1F [AS-703026, pimasertib]
- pERK in peripheral blood mononuclear cells [1]: inhibition
- EC50 (CCLE NSCLC cell lines; Homo sapiens): 940 nM
- IC50 (CCLE NSCLC cell lines; Homo sapiens): 1510 nM
- pERK (pERK): inhibited

SMILES: C[C@@]1(C(=O)Nc2ccc(F)nc2)CCCN1c1nc(Nc2cc(C3CC3)n[nH]2)c2cccn2n1 [BMS-754807]
- EC50 (CCLE NSCLC cell lines; Homo sapiens): 1020 nM
- IC50 (CCLE NSCLC cell lines; Homo sapiens): 1740 nM
- effect on cisplatin and carboplatin ([2]; A549 cells): enhanced
- apoptosis [2, 11]: enhanced
- cell survival and wound closure [2, 11]: reduced

SMILES: CC(C)C[C@@H]1NC(=O)[C@@H](C(C)C)NC(=O)[C@@H]2CCCN2C(=O)[C@@H](CC(=O)O)NC(=O)[C@@H](Cc2c[nH]c3ccccc23)NC1=O [BQ-123] (cyclo(L[dW][dD]P[dV]))
- increase in EGFR and HER2 transactivation [3, 12]: inhibited

SMILES: CNC(=O)[C@H](Cc1c[nH]c2ccccc12)NC(=O)[C@@H](CC(=O)NO)CC(C)C [GM6001]
- increase in EGFR and HER2 transactivation [3, 12]: inhibited

SMILES: CS(=O)(=O)CCNCc1ccc(-c2ccc3ncnc(Nc4ccc(OCc5cccc(F)c5)c(Cl)c4)c3c2)o1 [Lapatinib]
- increase in EGFR and HER2 transactivation [3]: inhibited

SMILES: N#CC(=C(N)Sc1ccc(N)cc1)c1ccccc1C(F)(F)F [MEK1-2-inhibitor]
- EC50 (CCLE NSCLC cell lines): 2200 nM
- IC50 (CCLE NSCLC cell lines): 4200 nM

SMILES: CN1CC[C@]23c4c5ccc(O)c4O[C@H]2[C@@H](O)C=C[C@H]3[C@H]1C5 [Morphine]
- growth of NSCLC H460 cells (NSCLC H460 cells): promoted

SMILES: COc1cccc(-c2cc(=O)c3ccccc3o2)c1N [PD-98059]
- EC50 (CCLE NSCLC cell lines): 607 nM
- IC50 (CCLE NSCLC cell lines): 4980 nM

SMILES: O=C(NOCC1CC1)c1ccc(F)c(F)c1Nc1ccc(I)cc1Cl [PD-184352]
- EC50 (CCLE NSCLC cell lines): 2190 nM
- IC50 (CCLE NSCLC cell lines): 3990 nM

SMILES: Cc1cc(I)ccc1Nc1c(C(=O)NOCC2CC2)cc(F)c(F)c1F [PD-198306]
- EC50 (CCLE NSCLC cell lines; Homo sapiens): 2030 nM
- IC50 (CCLE NSCLC cell lines; Homo sapiens): 3160 nM
- oxidative phosphorylation [4]: uncouples

SMILES: O=C(NOC[C@H](O)CO)c1ccc(F)c(F)c1Nc1ccc(I)cc1F [PD-0325901]
- primary endpoint (refractory NSCLC): did not meet
- EC50 (CCLE NSCLC cell lines): 386 nM
- IC50 (CCLE NSCLC cell lines): 748 nM
- average IC50 and EC50 values (in words) (CCLE NSCLC cell lines; PRISM drug screening data): small

SMILES: Cc1ccc(-c2nn(C(C)(C)C)c3ncnc(N)c23)cc1 [PP-1]
- antiapoptotic impact of morphine (NSCLC cells [5]): reversed
- EC50 (CCLE NSCLC cell lines): 2080 nM
- IC50 (CCLE NSCLC cell lines): 3410 nM
- phosphorylation induced by morphine (NSCLC cells [6]): decreased

SMILES: CC(C)(C)n1nc(-c2ccc(Cl)cc2)c2c(N)ncnc21 [PP-2]
- EC50 (CCLE NSCLC cell lines): 2480 nM
- IC50 (CCLE NSCLC cell lines): 3190 nM
- increase in EGFR and HER2 transactivation [3, 12]: inhibited

SMILES: COc1ccc(Cl)cc1NC(=O)Nc1cc(C)nc2ccccc12 [PQ-401]
- apoptosis (U87MG glioma cells): induces
- in-vitro viability, proliferation, and mobility (U87MG glioma cells): inhibits
- in-vivo glioma tumor growth (glioma tumor): inhibits
- osteosarcoma cell proliferation, migration, and colony formation (U2OS and 143B lines): inhibits
- EC50 (CCLE NSCLC cell lines; Homo sapiens): 2200 nM
- IC50 (CCLE NSCLC cell lines; Homo sapiens): 5340 nM

SMILES: O=S(=O)(O)c1cc(O)c(O)c(S(=O)(=O)O)c1 [Tiron]
- increase in EGFR and HER2 transactivation [3, 12]: inhibited

SMILES: N#CC(=C(/N)Sc1ccccc1N)/C(C#N)=C(\N)Sc1ccccc1N [U-0126]
- anchorage-independent growth [7]: inhibits
- endogenous promoters containing AP-1 response elements [8]: inhibits
- EC50 (CCLE NSCLC cell lines; Homo sapiens): 1870 nM
- IC50 (CCLE NSCLC cell lines; Homo sapiens): 4530 nM
- sensitivity to anoikis [9]: sensitizes

SMILES: COc1nc(C)cnc1NS(=O)(=O)c1cccnc1-c1ccc(-c2nnco2)cc1 [ZD4054]
- increase in EGFR and HER2 transactivation [3, 12]: inhibited

SMILES: COc1cc2ncnc(Nc3ccc(Cl)cc3F)c2cc1OC [ZM-306416]
- EC50 (CCLE NSCLC cell lines; Homo sapiens): 1080 nM
- IC50 (CCLE NSCLC cell lines; Homo sapiens): 2630 nM
- trophoblast proliferation and migration (trophoblast): impaired

SMILES: COc1cc(Nc2c(C#N)cnc3cc(OCCCN4CCN(C)CC4)c(OC)cc23)c(Cl)cc1Cl [bosutinib]
- EC50 (CCLE NSCLC cell lines; Homo sapiens): 1590 nM
- IC50 (CCLE NSCLC cell lines; Homo sapiens): 3160 nM

SMILES: Cc1nc(Nc2ncc(C(=O)Nc3c(C)cccc3Cl)s2)cc(N2CCN(CCO)CC2)n1 [dasatinib]
- EC50 (CCLE NSCLC cell lines; Homo sapiens): 504 nM
- IC50 (CCLE NSCLC cell lines; Homo sapiens): 555 nM

SMILES: COc1cc2c(cc1OC)[C@@H]1C(=O)c3ccc4c(c3O[C@@H]1CO2)C=CC(C)(C)O4 [deguelin]
- antiapoptotic impact of morphine (NSCLC cells [5]): reversed

SMILES: O=C1Nc2ccccc2/C1=C1/Nc2ccccc2C1=O [indirubin]
- EC50 (CCLE NSCLC cell lines; Homo sapiens): 630 nM
- IC50 (CCLE NSCLC cell lines; Homo sapiens): 3550 nM

SMILES: C[C@]1(O)C[C@@H](c2nc(-c3ccc4ccc(-c5ccccc5)nc4c3)c3c(N)nccn32)C1 [linsitinib]
- PFS or OS (non-progressing NSCLC): did not improve
- EC50 (CCLE NSCLC cell lines; Homo sapiens): 2090 nM
- IC50 (CCLE NSCLC cell lines; Homo sapiens): 4250 nM
- patient outcomes (NSCLC): worse patient outcomes

SMILES: C[N@+]1(CC2CC2)CC[C@]23c4c5ccc(O)c4O[C@H]2C(=O)CC[C@@]3(O)[C@H]1C5 [methylnaltrexone]
- antiapoptotic impact of morphine (NSCLC cells [5]): reversed
- phosphorylation induced by morphine (NSCLC cells [6]): decreased

SMILES: CN1CCN(CCOc2cc(OC3CCOCC3)c3c(Nc4c(Cl)ccc5c4OCO5)ncnc3c2)CC1 [saracatinib]
- EC50 (CCLE NSCLC cell lines; Homo sapiens): 983 nM
- IC50 (CCLE NSCLC cell lines; Homo sapiens): 1730 nM

SMILES: Cn1cnc2c(F)c(Nc3ccc(Br)cc3Cl)c(C(=O)NOCCO)cc21 [selumetinib]
- safety profile in treating NSCLC [10]: better safety profile
- EC50 (CCLE NSCLC cell lines; Homo sapiens): 647 nM
- IC50 (CCLE NSCLC cell lines; Homo sapiens): 2210 nM
